Patent US20040110771A1, “7-(r)-aminotriazolopyrimidines, the production thereof and use of the same for combatting phytopathogenic fungi” (priority 2000, published 2004)

What was measured:
Type in all cases: in vivo
Septoria tritici = assay: Protective activity against Septoria foliar blotch disease of wheat caused by Septoria tritici; details: wheat seedlings "Riband", inoculated 24 h after spraying, 2 weeks
Method: The active compounds were prepared separately or jointly as a 10% strength emulsion in a mixture of 70% by weight of cyclohexanone, 20% by weight of Nekanil® LN (Lutensol® AP6, wetting agent having emulsifying and dispersing action based on ethoxylated alkylphenols) and 10% by weight of Wettol® EM (nonionic emulsifier based on ethoxylated castor oil) and diluted with water to the desired concentration.
Leaves of potted wheat seedlings of the cultivar “Riband” were sprayed to runoff point with an aqueous preparation of active compound which had been prepared from a stock solution made of 10% of active compound, 85% of cyclohexanone and 5% of emulsifier. 24 hours after the spray coating had dried on, they were inoculated with an aqueous spore suspension of Septoria tritici. The suspension contained 2.0×10^6 spores/ml. The test plants were then placed in a greenhouse at 18-22° C. and a relative atmospheric humidity of close to 100%. After 2 weeks, the extent of the development of the disease was determined visually in % infection of the entire leaf area.

Pyrenophora teres = assay: Activity against net blotch of barley caused by Pyrenophora teres; details: barley seedlings "Igri", inoculated 24 h after spraying, 6 days
Outline: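 Potted barley seedlings (cv. Igri) were sprayed to runoff with aqueous compound preparation, then inoculated with P. teres spores 24 h after the spray dried. Plants were kept in a greenhouse at 20-24° C and 95-100% relative humidity, and disease was scored visually after 6 days as % infected leaf area.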

[1] = system: Blumeria graminis forma specialis tritici; assay: Activity against mildew of wheat caused by Blumeria graminis forma specialis tritici; details: wheat seedlings "Kanzler", dusted with spores 24 h after spraying, 7 days
Outline: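 Compound, emulsified then diluted in water, sprayed to runoff onto leaves of potted wheat seedlings cv. Kanzler; inoculated with Blumeria graminis f. sp. tritici spores 24 h after the coating dried. Plants kept in greenhouse at 20-24° C., 60-90% relative humidity; mildew scored visually after 7 days as % infected leaf area.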

Puccinia recondita = assay: Curative activity against brown rust of wheat caused by Puccinia recondita; details: curative spray 24 h after inoculation, wheat seedlings "Kanzler", 7 days
Outline: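 Wheat seedlings (cv. Kanzler) inoculated with brown rust spores and held 24 h at 90–95% humidity and 20–22°C, then sprayed to runoff with the emulsified compound the next day. Rust development on leaves scored after 7 days in greenhouse at 20–22°C and 65–70% relative humidity.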

Structure (SMILES)	% infection of the leaves after application of an aqueous preparation comprising . . . ppm of active compound (Septoria tritici; 16 ppm)	% infection of the leaves after application of an aqueous preparation comprising . . . ppm of active compound (Septoria tritici; 63 ppm)	% infection of the leaves after application of an aqueous preparation comprising . . . ppm of active compound (Septoria tritici; 250 ppm)	% infection of the leaves after application of an aqueous preparation comprising . . . ppm of active compound (Pyrenophora teres; 16 ppm)	% infection of the leaves after application of an aqueous preparation comprising . . . ppm of active compound ([1]; 16 ppm)	% infection of the leaves after application of an aqueous preparation comprising . . . ppm of active compound ([1]; 63 ppm)	% infection of the leaves after application of an aqueous preparation comprising . . . ppm of active compound ([1]; 250 ppm)	% infection of the leaves after application of an aqueous preparation comprising . . . ppm of active compound (Puccinia recondita; 16 ppm)	% infection of the leaves after application of an aqueous preparation comprising . . . ppm of active compound (Puccinia recondita; 63 ppm)	% infection of the leaves after application of an aqueous preparation comprising . . . ppm of active compound (Puccinia recondita; 250 ppm)	% infection of the leaves after application of an aqueous preparation comprising . . . ppm of active compound (Pyrenophora teres; 63 ppm)	% infection of the leaves after application of an aqueous preparation comprising . . . ppm of active compound (Pyrenophora teres; 250 ppm)
CC(C)C(C)Nc1c(-c2c(F)cc(F)cc2F)c(Cl)nc2ncnn12 (centres unmarked) [I.-14]	15%	15%	15%	3%	30%	30%	20%	0%	0%	–	–	–
CC(C)[C@H](C)Nc1c(-c2c(F)cccc2F)c(Cl)nc2ncnn12 [comparison (S)-amine of I.-5]	100%	100%	100%	80%	100%	100%	100%	–	100%	100%	–	–
CC[C@H](C)Nc1c(-c2c(Cl)cccc2Cl)c(Cl)nc2ncnn12 [comparison (S)-amine of I.-7]	90%	90%	90%	100%	–	–	100%	100%	–	–	100%	100%
CC(C)[C@H](C)Nc1c(-c2c(F)cc(F)cc2F)c(Cl)nc2ncnn12 [comparison (S)-amine of I.-14]	90%	70%	70%	40%	100%	80%	80%	100%	5%	–	–	–
CC(Nc1c(-c2ccccc2Cl)c(Cl)nc2ncnn12)C(C)(C)C [comparison (S)-amine of I.-44a]	100%	100%	100%	100%	100%	100%	100%	–	–	100%	30%	–
